Measured values reported in PubChem BioAssay (NCI).
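Cultured in 96-well plates, cells were exposed to test compound for 48 hours across five concentrations. GI50 = concentration required for 50% inhibition of growth. Definition used: TGI = concentration required for complete inhibition of growth.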

Assays:
Assay in all cases: NCI tumour cell line growth inhibition, 48 h
COLO 205 colon = tested on: COLO 205 colon
OVCAR-8 ovarian = tested on: OVCAR-8 ovarian
NCI/ADR-RES ovarian = tested on: NCI/ADR-RES ovarian
MALME-3M melanoma = tested on: MALME-3M melanoma
HCC-2998 colon = tested on: HCC-2998 colon
NCI-H522 lung = tested on: NCI-H522 lung
UACC-62 melanoma = tested on: UACC-62 melanoma
MDA-MB-435 = tested on: MDA-MB-435
SR leukemia = tested on: SR leukemia
A549 NSCLC = tested on: A549 NSCLC
SF-295 CNS = tested on: SF-295 CNS
T-47D breast = tested on: T-47D breast
HOP-62 NSCLC = tested on: HOP-62 NSCLC
SK-MEL-2 melanoma = tested on: SK-MEL-2 melanoma
HT29 colon = tested on: HT29 colon
SF-539 CNS = tested on: SF-539 CNS
NCI-H23 lung = tested on: NCI-H23 lung
RPMI-8226 leukemia = tested on: RPMI-8226 leukemia
IGROV1 ovarian = tested on: IGROV1 ovarian
K-562 leukemia = tested on: K-562 leukemia
SK-MEL-28 melanoma = tested on: SK-MEL-28 melanoma
786-0 renal = tested on: 786-0 renal
HS 578T breast = tested on: HS 578T breast
A498 renal = tested on: A498 renal
MDA-MB-231 breast = tested on: MDA-MB-231 breast
SK-MEL-5 melanoma = tested on: SK-MEL-5 melanoma
OVCAR-5 ovarian = tested on: OVCAR-5 ovarian
PC-3 prostate = tested on: PC-3 prostate
HOP-92 NSCLC = tested on: HOP-92 NSCLC
M14 melanoma = tested on: M14 melanoma
HCT-116 colon = tested on: HCT-116 colon
DU-145 prostate = tested on: DU-145 prostate
U251 CNS = tested on: U251 CNS
UACC-257 melanoma = tested on: UACC-257 melanoma
SK-OV-3 ovarian = tested on: SK-OV-3 ovarian
CAKI-1 renal = tested on: CAKI-1 renal
CCRF-CEM leukemia = tested on: CCRF-CEM leukemia
SF-268 CNS = tested on: SF-268 CNS
OVCAR-4 ovarian = tested on: OVCAR-4 ovarian
SW-620 colon = tested on: SW-620 colon
MOLT-4 leukemia = tested on: MOLT-4 leukemia
LOX IMVI melanoma = tested on: LOX IMVI melanoma
BT-549 breast = tested on: BT-549 breast
SNB-19 CNS = tested on: SNB-19 CNS
OVCAR-3 ovarian = tested on: OVCAR-3 ovarian
HCT-15 colon = tested on: HCT-15 colon
SNB-75 CNS = tested on: SNB-75 CNS
TK-10 renal = tested on: TK-10 renal
NCI-H226 lung = tested on: NCI-H226 lung
KM12 colon = tested on: KM12 colon
HL-60(TB) leukemia = tested on: HL-60(TB) leukemia
EKVX NSCLC = tested on: EKVX NSCLC
RXF 393 renal = tested on: RXF 393 renal
NCI-H460 lung = tested on: NCI-H460 lung
ACHN renal = tested on: ACHN renal
SN12C renal = tested on: SN12C renal
UO-31 renal = tested on: UO-31 renal
MCF7 breast = tested on: MCF7 breast

CSc1ccc(/C(=N/N=C(N)N)c2ccc(F)cc2)cc1
GI50 (COLO 205 colon): 0.415 µM
TGI (COLO 205 colon): 1.77 µM
GI50 (OVCAR-8 ovarian): 1.29 µM
TGI (OVCAR-8 ovarian): 14.9 µM
GI50 (NCI/ADR-RES ovarian): 1.66 µM
TGI (NCI/ADR-RES ovarian): 7.25 µM
GI50 (MALME-3M melanoma): 1.01 µM
TGI (MALME-3M melanoma): 3.25 µM
GI50 (HCC-2998 colon): 0.314 µM
TGI (HCC-2998 colon): 1.18 µM
GI50 (NCI-H522 lung): 0.392 µM
TGI (NCI-H522 lung): 11.7 µM
GI50 (UACC-62 melanoma): 0.417 µM
TGI (UACC-62 melanoma): 7.3 µM
GI50 (MDA-MB-435): 0.23 µM
TGI (MDA-MB-435): 0.551 µM
GI50 (SR leukemia): 0.36 µM
TGI (SR leukemia): 1.8 µM
GI50 (A549 NSCLC): 0.48 µM
TGI (A549 NSCLC): 10.6 µM
GI50 (SF-295 CNS): 0.304 µM
TGI (SF-295 CNS): 10.5 µM
GI50 (T-47D breast): 0.56 µM
TGI (T-47D breast): 11.7 µM
GI50 (HOP-62 NSCLC): 0.755 µM
TGI (HOP-62 NSCLC): 9.2 µM
GI50 (SK-MEL-2 melanoma): 2.67 µM
TGI (SK-MEL-2 melanoma): 17.5 µM
GI50 (HT29 colon): 0.35 µM
TGI (HT29 colon): 5.47 µM
GI50 (SF-539 CNS): 0.367 µM
TGI (SF-539 CNS): 1.65 µM
GI50 (NCI-H23 lung): 0.328 µM
TGI (NCI-H23 lung): 3.87 µM
GI50 (RPMI-8226 leukemia): 0.468 µM
TGI (RPMI-8226 leukemia): 3.16 µM
GI50 (IGROV1 ovarian): 0.421 µM
TGI (IGROV1 ovarian): 3.47 µM
GI50 (K-562 leukemia): 0.336 µM
TGI (K-562 leukemia): 6.52 µM
GI50 (SK-MEL-28 melanoma): 1.41 µM
TGI (SK-MEL-28 melanoma): 11.6 µM
GI50 (786-0 renal): 0.802 µM
TGI (786-0 renal): 12.5 µM
GI50 (HS 578T breast): 0.872 µM
TGI (HS 578T breast): 10.5 µM
GI50 (A498 renal): 0.39 µM
TGI (A498 renal): 2.96 µM
GI50 (MDA-MB-231 breast): 0.807 µM
TGI (MDA-MB-231 breast): 10 µM
GI50 (SK-MEL-5 melanoma): 0.393 µM
TGI (SK-MEL-5 melanoma): 1.49 µM
GI50 (OVCAR-5 ovarian): 0.651 µM
TGI (OVCAR-5 ovarian): 12.7 µM
GI50 (PC-3 prostate): 0.466 µM
TGI (PC-3 prostate): 11.4 µM
GI50 (HOP-92 NSCLC): 0.797 µM
TGI (HOP-92 NSCLC): 6.11 µM
GI50 (M14 melanoma): 0.308 µM
TGI (M14 melanoma): 1.1 µM
GI50 (HCT-116 colon): 0.346 µM
TGI (HCT-116 colon): 4.58 µM
GI50 (DU-145 prostate): 0.415 µM
TGI (DU-145 prostate): 3.84 µM
GI50 (U251 CNS): 0.415 µM
TGI (U251 CNS): 7.13 µM
GI50 (UACC-257 melanoma): 1.46 µM
TGI (UACC-257 melanoma): 11.2 µM
GI50 (SK-OV-3 ovarian): 0.78 µM
TGI (SK-OV-3 ovarian): 15.5 µM
GI50 (CAKI-1 renal): 0.536 µM
TGI (CAKI-1 renal): 4.82 µM
GI50 (CCRF-CEM leukemia): 0.414 µM
TGI (CCRF-CEM leukemia): 15.7 µM
GI50 (SF-268 CNS): 0.787 µM
TGI (SF-268 CNS): 11.6 µM
GI50 (OVCAR-4 ovarian): 0.982 µM
TGI (OVCAR-4 ovarian): 15.6 µM
GI50 (SW-620 colon): 0.457 µM
TGI (SW-620 colon): 9.76 µM
GI50 (MOLT-4 leukemia): 0.533 µM
TGI (MOLT-4 leukemia): 10.9 µM
GI50 (LOX IMVI melanoma): 0.324 µM
TGI (LOX IMVI melanoma): 1.55 µM
GI50 (BT-549 breast): 5.6 µM
TGI (BT-549 breast): 17.1 µM
GI50 (SNB-19 CNS): 0.424 µM
TGI (SNB-19 CNS): 12.5 µM
GI50 (OVCAR-3 ovarian): 0.406 µM
TGI (OVCAR-3 ovarian): 9.68 µM
GI50 (HCT-15 colon): 0.341 µM
TGI (HCT-15 colon): 9.85 µM
GI50 (SNB-75 CNS): 0.342 µM
TGI (SNB-75 CNS): 5.56 µM
GI50 (TK-10 renal): 2.92 µM
TGI (TK-10 renal): 17.2 µM
GI50 (NCI-H226 lung): 1.85 µM
TGI (NCI-H226 lung): 14.7 µM
GI50 (KM12 colon): 0.423 µM
TGI (KM12 colon): 11.7 µM
GI50 (HL-60(TB) leukemia): 0.273 µM
TGI (HL-60(TB) leukemia): 0.873 µM
GI50 (EKVX NSCLC): 0.6 µM
TGI (EKVX NSCLC): 13.3 µM
GI50 (RXF 393 renal): 0.189 µM
TGI (RXF 393 renal): 0.708 µM
GI50 (NCI-H460 lung): 0.367 µM
TGI (NCI-H460 lung): 3.4 µM
GI50 (ACHN renal): 0.724 µM
TGI (ACHN renal): 10.5 µM
GI50 (SN12C renal): 0.672 µM
TGI (SN12C renal): 10 µM
GI50 (UO-31 renal): 0.856 µM
TGI (UO-31 renal): 4.45 µM
GI50 (MCF7 breast): 0.358 µM
TGI (MCF7 breast): 3.69 µM
